Assays:
[1] = test system: TE5 cells; experiment: suppression of endogenous Bcl-xL by anti-sense morpholino, western blot and active-caspase 3 assay; type: cell-based, human
Procedure: Anti-sense Bcl-xL morpholino oligonucleotides (5′-[…]-3′) (SEQID NO:2) for suppressing expression of endogenous Bcl-xL in vivo, and fluorescein-labeled standard control oligonucleotides were purchased from Gene Tools, LLC (Corvallis, Oreg.). The scrape delivery method was used to deliver the oligonucleotides to the cells. Briefly, cells (1×10^6/well) were seeded into a 6-well culture plate, and after 16 hours of incubation, the medium was changed with 1 mL of fresh medium containing 20 μM morpholino oligonucleotides (chemically modified antisense oligonucleotides). Then, the cells were scraped out of the plates using a cell scraper (SARSTEDT, Newton, N.C.). After gently pipetting up and down twice, the cells were transferred to a new culture plate. After 48 hours of incubation, the cells were treated under the indicated conditions described in the corresponding figures for the example in which the cells were used. […] The effect is not seen in normal cells.
To confirm the effect of Bcl-xL on the synergistic cell killing, we introduced anti-sense Bcl-xL morpholino oligonucleotides (AS Bcl-xL) were introduced into TE5 cells. This was to determine the effect of suppression of the endogenous Bcl-xL in the TE5 cells. […]

[2] = test system: all cells, including cancer cells; experiment: protection from the killing effect of TRAIL by caspase inhibitors; type: cell-based; settings: stated without experimental detail

Substance	expression of endogenous Bcl-xL ([1]; 20 μM morpholino oligonucleotide, scrape delivery, western blot)	cell death by adriamycin plus TRAIL when Bcl-xL is suppressed ([1]; even in the presence of z-LEHD-FMK)	protection from the killing effect of TRAIL [2]
AS Bcl-xL: Anti-sense Bcl-xL morpholino oligonucleotide 5'-CGGTTGCTCTGAGACATTTTTATA-3' (SEQID NO:2), from Gene Tools (all phosphorodiamidate morpholino (PMO))	suppression of endogenous Bcl-xL was observed	underwent synergistic apoptotic cell death	–
z-IETD-FMK	–	–	protect all cells, including cancer cells, from the killing effect of TRAIL

From patent US20020169123A1, “Regulating apoptosis in TRAIL-resistant cancer cells, while protecting normal, non-cancerous cells” (THE TRUSTEES OF THE UNIVERSITY OF PENNSYLVANIA, priority 2001, published 2002)
